Some test systems named below: SNB-75; SF-295; T47D; Hs-578T; SNB-19; UACC-257; U-251; Malme-3M; DU-145; MOLT-4; OVCAR-8; HCT-15; NCI-H226; SF-268; OVCAR-4; LOX IMVI; SN12C; SK-MEL-28; COLO 205; UO-31.
Holding throughout (test): growth of human tumour cells (NCI), 48 h

Molecules are shown by their SMILES.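 Five concentrations, 48 hours, 96-well plates. Here, GI50 denotes the concentration required for 50% inhibition of growth.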 Activity calls are given as the source filed them. Rule as the data show it: active = GI50 up to about 1.1 µM and inactive = higher.

With `CN1CCc2c(sc3ncn(Nc4ccc(F)cc4)c(=N)c23)C1`, the GI50 with SNB-75, in the assay with SF-295, in the assay on T47D, in the assay on Hs-578T, with SNB-19 and in the assay with UACC-257 was > 100 µM (inactive) in each case. In addition, the GI50 with U-251 is > 100 µM (inactive); in the assay on Malme-3M it was > 100 µM (inactive); with DU-145, > 100 µM (inactive); in the assay on MOLT-4, > 100 µM (inactive); in the assay on OVCAR-8, > 100 µM (inactive); with HCT-15, more than 100 µM. Moreover, the GI50 was 92 µM (inactive) with NCI-H226; > 100 µM (inactive) with SF-268; > 100 µM (inactive) in the assay on OVCAR-4; > 100 µM (inactive) in the assay with LOX IMVI; > 100 µM (inactive) in the assay with SN12C; > 100 µM (inactive) in the assay with SK-MEL-28.

Turning to `COc1cc(CN(C)N2C(=O)c3cccc4cc([N+](=O)[O-])cc(c34)C2=O)cc(OC)c1OC`, the GI50 with SNB-75 was 25.2 µM (inactive); with SF-295 it was 54.6 µM (inactive); in the assay with T47D, > 100 µM (inactive); with Hs-578T, 44.1 µM (inactive); in the assay on SNB-19, > 100 µM (inactive); with COLO 205 it was > 100 µM (inactive). Besides, the GI50 in the assay on U-251 is > 100 µM (inactive); in the assay on Malme-3M, > 100 µM (inactive); in the assay with DU-145, > 100 µM (inactive); with MOLT-4 it was 27.6 µM (inactive); in the assay on OVCAR-8, > 100 µM (inactive); in the assay on HCT-15, more than 100 µM. Also, the GI50 is 58.1 µM (inactive) with NCI-H226; > 100 µM (inactive) in the assay with OVCAR-4; > 100 µM (inactive) with UO-31; > 100 µM (inactive) in the assay with SN12C; > 100 µM (inactive) in the assay on SK-MEL-28.

`COc1ccc(C(=C(I)c2ccccc2)c2ccc(OC)cc2)cc1`: the GI50 in the assay on SF-295 is > 100 µM (inactive); in the assay with T47D it was 19.1 µM (inactive); in the assay on Hs-578T, > 100 µM (inactive); with SNB-19 it was > 100 µM (inactive); in the assay on UACC-257, > 100 µM (inactive); in the assay with COLO 205, > 100 µM (inactive). The GI50 was > 100 µM (inactive) in the assay with U-251; > 100 µM (inactive) with Malme-3M; > 100 µM (inactive) with DU-145; > 100 µM (inactive) in the assay on MOLT-4; > 100 µM (inactive) in the assay with OVCAR-8; 65.6 µM in the assay with HCT-15. Moreover, the GI50 in the assay on NCI-H226, with SF-268, in the assay with OVCAR-4, in the assay with LOX IMVI, in the assay with UO-31 and with SN12C was > 100 µM (inactive) each time. The GI50 with SK-MEL-28 was > 100 µM (inactive).

With `COC(=O)[C@@H]1CO[C@H](C(C)(C)C)N1C(=O)N1C=CC(=O)C[C@H]1C`, the GI50 in the assay with SNB-75, in the assay on SF-295, in the assay with T47D, with Hs-578T, in the assay on UACC-257 and in the assay on COLO 205 was > 100 µM (inactive) throughout. Moreover, the GI50 with U-251 was > 100 µM (inactive); in the assay with Malme-3M it was > 100 µM (inactive); in the assay with DU-145, > 100 µM (inactive); with MOLT-4, > 10 µM (inactive); with OVCAR-8 it was > 100 µM (inactive); with NCI-H226, > 100 µM (inactive). In addition, the GI50 in the assay with SF-268, with LOX IMVI, in the assay with UO-31, in the assay on SN12C and with SK-MEL-28 was > 100 µM (inactive) throughout.

Turning to `Cc1ccc2c(c1C)C(=O)C1(Cc3cc4c(cc3C1=O)CCC4)C2` (centres undefined), the GI50 in the assay with SNB-75, with SF-295, in the assay on T47D, with Hs-578T, with SNB-19 and with UACC-257 was > 100 µM (inactive) in each case. The GI50 in the assay with COLO 205, in the assay on U-251, in the assay on Malme-3M, in the assay on DU-145, in the assay with MOLT-4 and in the assay with OVCAR-8 was > 100 µM (inactive) in each case. For the same molecule, the GI50 in the assay with HCT-15 is more than 100 µM; in the assay on NCI-H226, > 100 µM (inactive); in the assay on SF-268, > 100 µM (inactive); in the assay with OVCAR-4, > 100 µM (inactive); with UO-31, > 100 µM (inactive); in the assay with SN12C, > 100 µM (inactive). In addition, the GI50 with SK-MEL-28 is > 100 µM (inactive).

As to `COc1ccc2c(c1)CCN1CCCc3ccccc3C21` (centres undefined), the GI50 with SNB-75 was 22 µM (inactive); in the assay with SF-295 it was 26.4 µM (inactive); with T47D, 45.1 µM (inactive); in the assay on Hs-578T, 42.1 µM (inactive); in the assay with SNB-19 it was 94.6 µM (inactive); in the assay on UACC-257, 41.9 µM (inactive). In addition, the GI50 in the assay with COLO 205 was 27.6 µM (inactive); in the assay on U-251, 37.2 µM (inactive); in the assay on DU-145 it was > 100 µM (inactive); in the assay on MOLT-4, 32.1 µM (inactive); in the assay with OVCAR-8 it was 91 µM (inactive); with HCT-15 it was 37.6 µM. In addition, the GI50 with NCI-H226 is 28.1 µM (inactive); in the assay with SF-268, 36 µM (inactive); in the assay with OVCAR-4, > 100 µM (inactive); in the assay with LOX IMVI, 22.4 µM (inactive); in the assay with UO-31 it was 29.4 µM (inactive); in the assay on SN12C, 42.7 µM (inactive). Further, the GI50 in the assay with SK-MEL-28 was 50.1 µM (inactive).

With `O=C(C#Cc1ccccc1)N1CCCCC1`, the GI50 in the assay with SNB-75 is > 100 µM (inactive); with SF-295 it was > 100 µM (inactive); with T47D it was 52.6 µM (inactive); with Hs-578T it was > 100 µM (inactive); in the assay with SNB-19, > 100 µM (inactive); in the assay with UACC-257, > 100 µM (inactive). In addition, the GI50 in the assay with COLO 205 is > 100 µM (inactive); in the assay on U-251 it was 84.1 µM (inactive); in the assay with Malme-3M it was 40 µM (inactive); in the assay with DU-145, 55.8 µM (inactive); with MOLT-4, > 100 µM (inactive); in the assay on OVCAR-8 it was 48.6 µM (inactive). In addition, the GI50 in the assay on HCT-15 is 49.9 µM; in the assay on NCI-H226 it was > 100 µM (inactive); in the assay on SF-268, 90.2 µM (inactive); in the assay with OVCAR-4, 80 µM (inactive); in the assay on LOX IMVI, 48.9 µM (inactive); with SN12C, > 100 µM (inactive). Also, the GI50 in the assay with SK-MEL-28 is > 100 µM (inactive).

For the molecule `O=S(=O)(CC(O)C(Cl)(Cl)Cl)NNc1ccccc1` (centres undefined), the GI50 in the assay on SNB-75 is > 100 µM (inactive); in the assay with SF-295, 80.7 µM (inactive); with T47D, 81.5 µM (inactive); with Hs-578T, > 100 µM (inactive); with SNB-19, > 100 µM (inactive); in the assay with UACC-257 it was > 100 µM (inactive). Moreover, the GI50 with COLO 205 was 75 µM (inactive); in the assay with U-251 it was > 100 µM (inactive); in the assay with Malme-3M it was > 100 µM (inactive); in the assay with DU-145 it was > 100 µM (inactive); with MOLT-4, > 100 µM (inactive); in the assay with OVCAR-8, > 100 µM (inactive). Besides, the GI50 with HCT-15 is 72.1 µM; with NCI-H226, > 100 µM (inactive); with SF-268 it was > 100 µM (inactive); with OVCAR-4 it was > 100 µM (inactive); with LOX IMVI, > 100 µM (inactive); in the assay with SN12C it was > 100 µM (inactive). Moreover, the GI50 with SK-MEL-28 is > 100 µM (inactive).

As to `Cc1ccc(/N=N/c2c(O)ccc3cc(S(=O)(=O)O)ccc23)c(C)c1`, the GI50 in the assay with SNB-75, with SF-295, with T47D, in the assay on Hs-578T, in the assay with SNB-19 and with UACC-257 was > 100 µM (inactive) each time. The GI50 with COLO 205, with U-251, in the assay with Malme-3M, in the assay on DU-145, with MOLT-4 and in the assay on OVCAR-8 was > 100 µM (inactive) in each case. Also, the GI50 in the assay on HCT-15 was more than 100 µM; in the assay on NCI-H226, > 100 µM (inactive); in the assay with SF-268 it was > 100 µM (inactive); in the assay with OVCAR-4, > 100 µM (inactive); in the assay on UO-31 it was > 100 µM (inactive); with SN12C, > 100 µM (inactive). Moreover, the GI50 in the assay on SK-MEL-28 is > 100 µM (inactive).

In the case of `Cc1cc(-c2nc3cc(F)ccc3s2)ccc1N`, the GI50 in the assay on SNB-75 is 20.4 µM (inactive); in the assay on SF-295, 14.8 µM (inactive); with T47D, < 0.01 µM (active); in the assay with Hs-578T, 26.5 µM (inactive); in the assay on SNB-19, 35.8 µM (inactive); with UACC-257 it was 29.9 µM (inactive). Moreover, the GI50 is 8.69 µM (inactive) with COLO 205; 24.2 µM (inactive) with U-251; 40.8 µM (inactive) in the assay with Malme-3M; 56 µM (inactive) in the assay on DU-145; 34.2 µM (inactive) with MOLT-4; 36.3 µM (inactive) with OVCAR-8. For the same molecule, the GI50 with HCT-15 was 7.96 µM; in the assay with NCI-H226 it was < 0.051 µM (active); with SF-268, 20.3 µM (inactive); in the assay with LOX IMVI, > 56.9 µM (inactive); in the assay with UO-31, 4.06 µM (inactive); with SN12C, 31 µM (inactive). In the assay with SK-MEL-28, the GI50 was > 100 µM (inactive).

On to `c1ccc([P+](c2ccccc2)(c2ccccc2)c2ccc([P+](c3ccccc3)(c3ccccc3)c3ccccc3)cc2)cc1`, for which the GI50 with SNB-75 is 37.6 µM (inactive); with SF-295 it was > 100 µM (inactive); in the assay with T47D it was 27.9 µM (inactive); in the assay on Hs-578T, 31.6 µM (inactive); in the assay on SNB-19, 54.1 µM (inactive); with UACC-257, 29.2 µM (inactive). The GI50 was 20.1 µM (inactive) with COLO 205; 34.2 µM (inactive) with U-251; > 100 µM (inactive) with Malme-3M; 52.8 µM (inactive) with DU-145; 24.7 µM (inactive) in the assay with MOLT-4; 59.6 µM (inactive) in the assay with OVCAR-8. Moreover, the GI50 in the assay on HCT-15 was more than 100 µM; in the assay on NCI-H226 it was 65.5 µM (inactive); in the assay with SF-268 it was 57.4 µM (inactive); with LOX IMVI it was 34.3 µM (inactive); in the assay on UO-31, > 100 µM (inactive); with SN12C, 35.7 µM (inactive). For the same molecule, the GI50 in the assay with SK-MEL-28 was > 100 µM (inactive).

For the origin of these results see ChEMBL document CHEMBL1201862, “PubChem BioAssay data set” (2004).
